# Test results published in ChEMBL document CHEMBL1139928, “Selective and dual action orally active inhibitors of thrombin and factor Xa” (Bioorg Med Chem Lett, 2007).
# Legend:
# [1] = Volume of distribution in Beagle dog; format: ADME, organism-based, Canis lupus familiaris; settings: in vivo, read-out: Vdss
# [2] = Oral bioavailability in Beagle dog; format: ADME, organism-based, Canis lupus familiaris; settings: in vivo
# [3] = Volume of distribution in Sprague-Dawley rat; format: ADME, organism-based; settings: in vivo, read-out: Vdss
# [4] = Half life in Beagle dog; format: ADME, organism-based, Canis lupus familiaris; settings: in vivo
# [5] = Oral bioavailability in Sprague-Dawley rat; format: ADME, organism-based; settings: in vivo
# [6] = Half life in Sprague-Dawley rat; format: ADME, organism-based; settings: in vivo
# [7] = Plasma clearance in Sprague-Dawley rat; format: ADME, organism-based
# [8] = Plasma clearance in Beagle dog; format: ADME, organism-based, Canis lupus familiaris
Vd [1] [L/kg],bioavailability [2] [%],Vd [3] [L/kg],half-life [4] [min],bioavailability [5] [%],half-life [6] [min],clearance [7] [mL/min/kg],clearance [8] [mL/min/kg],Structure (SMILES)
0.3,48,0.4,36,32,18,21,5.7,C/C(=C\S(=O)(=O)N[C@H]1CCN([C@@H](C)C(=O)N2CCOCC2)C1=O)c1ccc(Cl)s1
0.5,38,0.8,30,31,18,28,13,C[C@@H](C(=O)N1CCOCC1)N1CC[C@H](NS(=O)(=O)CCc2ccc(Cl)s2)C1=O
0.4,,0.3,,,,8,4.6,C[C@@H](C(=O)N1CCOCC1)N1CC[C@H](NS(=O)(=O)/C=C/c2ccc(Cl)s2)C1=O [GW813893]
